The values below come from paper PMC7230911, “Meroterpenoids from the Brown Alga Cystoseira usneoides as Potential Anti-Inflammatory and Lung Anticancer Agents” (Marine Drugs, 2020).

One series concerns iNOS. Description: iNOS protein expression in LPS-stimulated THP-1 macrophages (western blot). It is filed as cell-based, human. The note with it: 8 μg/mL, LPS-stimulated THP-1 cells. The protocol:
COX-2 is the key enzyme regulating the production of prostaglandins, which are the central mediators of inflammation. On the other hand, iNOS enzyme represents an important molecular target closely involved in inflammatory responses. Thus, the effect of the AMTs 1–8 on LPS-induced COX-2 and iNOS protein expression was investigated by western blot analysis.
Figure 3 Effect of meroterpenoids 1–8 on LPS-induced COX-2 and iNOS protein expression in THP-1 macrophages. Cells were pretreated for 1 h with the compounds (1, 2, 3, 4, 7, and 8 at 8 μg/mL; 5 and 6 at 4 μg/mL) and then stimulated with LPS (1 μg/mL). Cytosolic lysates from 24 h-stimulated cells were separated on 10% SDS-PAGE. COX-2, iNOS, and β-actin were detected by western blot analysis. Data are expressed as means ± SE from three independent experiments. Statistical significance is indicated (+++ p < 0.001 and ++ p < 0.01, vs. Control, respectively; * p < 0.05, and ** p < 0.01 vs. Control + LPS).
Western blotting was used to measure the protein levels of COX-2 and iNOS [65]. […] Proteins concentration in cell lysates was determined by Bio-Rad Protein Assay, based on the method of Bradford (BioRad, Richmond CA, USA). […] The protein band densities were quantified using a Scientific Imaging Systems (Biophotonics ImageJ Analysis Software, National Institute of Mental Health, Bethesda, MD, USA).

The next series deals with colitis. Details: method as in PMID 27527191. Conditions: down-regulating TNF-α, IL-1ß, IL-10, suppressing COX-2 and iNOS expression in mouse colon tissue; cited from earlier work.
The nature of series [1]: Cytotoxicity against normal lung cells MRC-5 (MTT assay). It is filed as cell-based, human. Conditions: human, MRC-5 fetal lung fibroblast cells, 50 μg/mL, 72 h, read-out: cell viability of normal cells. The protocol: The effect of the AMTs 1–8 on cell viability was investigated in the human lung cancer cell line A549. […] It has been reported that compounds with SI value higher or equal to 2.0 are potentially selective. […] It is worth noting that after treatment with 50 μg/mL of these two AMTs, the cell viability was lower than 15% for cancer cells and higher than 55% for normal cells.
Figure 4 Effects of different concentrations of meroterpenoids 1–8 on the viability of human lung cancer cell line A549 and the human fetal lung fibroblastic MRC-5 cells, using MTT assay after 72 h of treatment. Data are mean ±SE of three independent experiments. * p < 0.05, ** p < 0.01 and […] between the two cell lines.
Cell proliferation was evaluated by a modified MTT assay, which measures the mitochondrial dehydrogenase activity. A total of 5 × 10^3 cells/well (MRC-5 cells) and 3 × 10^3 cells/well (A549 cells) were cultured in a 96-well plate for 24 h. Then, treatments were added to the cell culture. After 72 h of incubation, the medium was removed and 125 µL of MTT (1 mg/mL in medium) was added to each well and incubated for 4 h. Next, 80 µL of 20% sodium dodecyl sulphate (SDS) was added and incubated for 5 h at 37 °C. The optical density of each well was measured at 540 nm (Synergy HT multiwell plate spectrophotometer reader, BioTek Instruments Inc., Winooski, VT, USA) to quantify cell viability. Cell viability (%) was calculated according to the following formula: % viability = (absorbance of compounds treated cells/absorbance of control cells) × 100. The degree of selectivity of the compounds was expressed by its SI value. Each SI value was calculated using the formula: SI = IC50 normal cell/IC50 cancer cell.

For the molecule `COc1c(C)cc(O)cc1C/C=C(\C)CC(=O)/C=C(\C)CCCC(C)(O)C(=O)/C=C/C(C)(C)O` (stereo not shown) [Compound 2, 11-hydroxy-1’-O-methylamentadione], the “effect on iNOS (in words)” value in the series with iNOS is “significantly inhibited”. The “in vivo effect in colitis (in words)” value with colitis is given as “intestinal anti-inflammatory activity in colitis”.

`COc1c(C)cc(O)cc1C/C=C(\C)CC(=O)/C=C(\C)CCCC(C)=O` [Compound 3, cystomexicone B]: the viability at 72 h, 50 µg/mL in series [1] is more than 55%.

With `COc1c(C)cc(O)cc1C/C=C(\C)CC(=O)/C=C(/C)CCCC(C)=O` [Compound 4, cystomexicone A], the viability at 72 h, 50 µg/mL in series [1] was more than 55%.
